Assay results from the supplement of paper PMC8671470.
± gives the standard deviation of the averaged measurements.

What was measured:
HL-60 [1] = experiment: cell viability (% survival relative to DMSO control); higher = less cytotoxic; conditions: 72 h
Procedure, shortened: (§1)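 Four-parameter log-logistic fits in drc and PharmacoGx supplied area under the curve where it is given. Underlying viability came from CellTiter-Glo, normalised to DMSO and proteasome-inhibitor wells, with the proteasome inhibitor at 10 μM. HL-60 cells in RPMI 1640 plus 10% FBS had been rescreened against the full library at five tenfold concentrations of 1–10,000 nM, in duplicate on 384-well plates, with DMSO or 100 nM of one of three metabolic inhibitors, for 72 h at 37 °C, 5% CO2.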

HL-60 [2] = experiment: area under dose-response curve (viability, 1 nM-10 uM) (fraction (0-1)); higher = more sensitive; conditions: 72 h
Procedure, shortened: as §1

[3] = 0.001 µM, co-treatment: AZD3965 100 nM
[4] = 0.001 µM, co-treatment: DMSO vehicle
[5] = 0.001 µM, co-treatment: GSK2194069 100 nM
[6] = 0.001 µM, co-treatment: pictilisib 100 nM
[7] = 0.01 µM, co-treatment: AZD3965 100 nM
[8] = 0.01 µM, co-treatment: DMSO vehicle
[9] = 0.01 µM, co-treatment: GSK2194069 100 nM
[10] = 0.01 µM, co-treatment: pictilisib 100 nM
[11] = 0.1 µM, co-treatment: AZD3965 100 nM
[12] = 0.1 µM, co-treatment: DMSO vehicle
[13] = 0.1 µM, co-treatment: GSK2194069 100 nM
[14] = 0.1 µM, co-treatment: pictilisib 100 nM
[15] = 1 µM, co-treatment: AZD3965 100 nM
[16] = 1 µM, co-treatment: DMSO vehicle
[17] = 1 µM, co-treatment: GSK2194069 100 nM
[18] = 1 µM, co-treatment: pictilisib 100 nM
[19] = 10 µM, co-treatment: AZD3965 100 nM
[20] = 10 µM, co-treatment: DMSO vehicle
[21] = 10 µM, co-treatment: GSK2194069 100 nM
[22] = 10 µM, co-treatment: pictilisib 100 nM
[23] = co-treatment: GSK2194069 100 nM
[24] = co-treatment: pictilisib 100 nM

| SMILES | cell viability (HL-60 [1]; [3]) [%] | cell viability (HL-60 [1]; [4]) [%] | cell viability (HL-60 [1]; [5]) [%] | cell viability (HL-60 [1]; [6]) [%] | cell viability (HL-60 [1]; [7]) [%] | cell viability (HL-60 [1]; [8]) [%] | cell viability (HL-60 [1]; [9]) [%] | cell viability (HL-60 [1]; [10]) [%] | cell viability (HL-60 [1]; [11]) [%] | cell viability (HL-60 [1]; [12]) [%] | cell viability (HL-60 [1]; [13]) [%] | cell viability (HL-60 [1]; [14]) [%] | cell viability (HL-60 [1]; [15]) [%] | cell viability (HL-60 [1]; [16]) [%] | cell viability (HL-60 [1]; [17]) [%] | cell viability (HL-60 [1]; [18]) [%] | cell viability (HL-60 [1]; [19]) [%] | cell viability (HL-60 [1]; [20]) [%] | cell viability (HL-60 [1]; [21]) [%] | cell viability (HL-60 [1]; [22]) [%] | area under dose-response curve (HL-60 [2]; co-treatment: AZD3965 100 nM) | area under dose-response curve (HL-60 [2]; co-treatment: DMSO vehicle) | area under dose-response curve (HL-60 [2]; [23]) | area under dose-response curve (HL-60 [2]; [24]) |
| --- | --- | --- | --- | --- | --- | --- | --- | --- | --- | --- | --- | --- | --- | --- | --- | --- | --- | --- | --- | --- | --- | --- | --- | --- |
| C=C1C(=O)O[C@H](CCCCCCCC)[C@H]1C(=O)O [C75] | 108 ± 5.4 | 105 ± 8.6 | 96 ± 22 | 103 ± 29 | 91.5 ± 7.9 | 99.5 ± 1.4 | 88.2 ± 8.7 | 90.9 ± 20 | 107 ± 2.8 | 101.8 ± 0.69 | 102 ± 4.4 | 105 ± 3.7 | 97.8 ± 1.8 | 102 ± 5.6 | 100 ± 1.4 | 103 ± 4.5 | 102 ± 7.2 | 102 ± 4.7 | 111 ± 4 | 98.9 ± 3.6 | < 0.0301 | < 0.0301 | < 0.0301 | < 0.0301 |
| O=NN(CCCl)C(=O)NCCCl [Carmustine] | 95.3 ± 1.7 | 96.8 ± 3.4 | 89.9 ± 1.6 | 86.1 ± 8.4 | 95 ± 12 | 102 ± 6 | 97.4 ± 11 | 83.1 ± 1.1 | 99.5 ± 3.9 | 100.48 ± 0.1 | 98.9 ± 2.9 | 110 ± 7.2 | 98.8 ± 5.9 | 97.8 ± 1 | 97.5 ± 2.7 | 93.7 ± 4.2 | 100.8 ± 0.83 | 105 ± 3.5 | 104 ± 9.1 | 118 ± 24 | < 0.0301 | < 0.0301 | < 0.0301 | < 0.0301 |
| O[C@H]1[C@H](O)[C@@H](O)CN2CC[C@H](O)[C@H]12 [Castanospermine] | 97.9 ± 2.2 | 98 ± 6.5 | 77.1 ± 28 | 108 ± 6.9 | 97.5 ± 4.8 | 100.5 ± 0.15 | 91.1 ± 24 | 106 ± 12 | 104 ± 3.5 | 96.8 ± 3 | 103 ± 3.5 | 89.4 ± 14 | 101 ± 8 | 98.7 ± 4.9 | 94.2 ± 4.3 | 92.4 ± 2 | 101 ± 3.6 | 101 ± 1.6 | 99.09 ± 0.95 | 99.9 ± 2.1 | < 0.0301 | < 0.0301 | < 0.0301 | < 0.0301 |
| N=C(N)c1ccc(N=NNc2ccc(C(=N)N)cc2)cc1 [Diminazene] | 94.9 ± 10 | 101.5 ± 0.37 | 99.7 ± 7.5 | 83.5 ± 15 | 98.5 ± 3.5 | 100.7 ± 0.87 | 100 ± 4 | 98 ± 3.4 | 106 ± 4.5 | 99.712 ± 0.039 | 105 ± 5.9 | 107.8 ± 0.59 | 93.1 ± 5.5 | 101.22 ± 0.055 | 100.3 ± 0.82 | 97.2 ± 1.2 | 101 ± 8.5 | 100.7 ± 0.46 | 101.5 ± 0.3 | 104 ± 4.4 | < 0.0301 | < 0.0301 | < 0.0301 | < 0.0301 |
| OCCN(CCO)c1nc(N2CCCCC2)c2nc(N(CCO)CCO)nc(N3CCCCC3)c2n1 [Dipyridamole] | 95.7 ± 8 | 101 ± 5 | 94.2 ± 5.8 | 90.6 ± 21 | 98.9 ± 3.2 | 97.54 ± 0.47 | 94.44 ± 0.53 | 101 ± 8.1 | 100.7 ± 0.65 | 107 ± 0.53 | 106 ± 3.8 | 105.3 ± 0.23 | 102 ± 6.6 | 100 ± 7 | 82 ± 9 | 99.7 ± 18 | 106 ± 4.1 | 106 ± 3.3 | 64 ± 5.3 | 97.4 ± 1.1 | < 0.0301 | < 0.0301 |  | < 0.0301 |
| Cc1cc(O)c2c(c1)C(=O)c1cc(O)cc(O)c1C2=O [Emodin] | 101 ± 3.6 | 102 ± 3.5 | 92.5 ± 2.3 | 96.6 ± 2.1 | 97.9 ± 3.5 | 100 ± 1.2 | 76.2 ± 16 | 107 ± 18 | 101 ± 2.3 | 101 ± 3.1 | 94 ± 6.6 | 97.4 ± 1.4 | 97.585 ± 0.0084 | 102.6 ± 0.14 | 74.7 ± 24 | 89.4 ± 7.9 | 98.7 ± 2.1 | 103.5 ± 0.92 | 96.7 ± 1.6 | 97.6 ± 2.7 | < 0.0301 | < 0.0301 | < 0.0301 | < 0.0301 |
| N#Cc1ccc(C2CCCc3cncn32)cc1 (stereo unspecified) [Fadrozole] | 99.99 ± 0.4 | 103 ± 3.8 | 105 ± 7.6 | 103 ± 6 | 98.614 ± 0.083 | 101 ± 1.2 | 97.3 ± 4.8 | 101 ± 3.5 | 101 ± 12 | 104 ± 5.4 | 101 ± 17 | 113 ± 24 | 96.8 ± 2.8 | 100 ± 0.66 | 112 ± 3 | 113 ± 6.1 | 98.7 ± 3 | 102.2 ± 0.98 | 100 ± 1.6 | 107 ± 15 | < 0.0301 | < 0.0301 | < 0.0301 | < 0.0301 |
| Cc1nc(-c2ccc(OCC(C)C)c(C#N)c2)sc1C(=O)O [Febuxostat] | 96.8 ± 1 | 96.5 ± 3.3 | 99.9 ± 2.2 | 98.2 ± 2.1 | 104 ± 1.1 | 99.3 ± 3.9 | 93.2 ± 8 | 100 ± 2.6 | 104 ± 1.4 | 103 ± 5.2 | 94.47 ± 0.83 | 107 ± 7.7 | 98.3 ± 3 | 95.6 ± 1.8 | 95.2 ± 2.4 | 95.4 ± 1.8 | 98.16 ± 0.3 | 104.8 ± 0.8 | 98.7 ± 3.6 | 96 ± 4.1 | 0.0351 | < 0.0301 | < 0.0301 | 0.0462 |
